Results from US9611262B2, “Substituted 2-azabicycles and their use as orexin receptor modulators” (JANSSEN PHARMACEUTICA NV, priority 2014, dated 2017).

Experiments:
[1] = biological target: human orexin 1 receptor (Homo sapiens (Human), UniProt O43613); assay: Human orexin 1 receptor radioligand binding (competitive); conditions: CHO cells stably expressing human orexin 1 receptor; 4 nM radioligand; averages of 2-20 runs; read-out: hOX1 Ki
Procedure, shortened: (§1)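 Competition binding used HEK293 cells expressing rat OX1 or CHO cells expressing human OX1, with 4 nM final [3H]-labelled thiazolyl-oxadiazolyl-pyrrolidinyl methanone radioligand in PBS. Compounds were tested at 7 concentrations (0.1 nM–10 μM) for 60 min at room temperature, then filtered; 10 μM almorexant defined nonspecific binding. Ki was derived from the one-site IC50 and the radioligand Kd.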

[2] = biological target: rat orexin 1 receptor (Rattus norvegicus, UniProt P56718); assay: Rat orexin 1 receptor radioligand binding (competitive); conditions: HEK293 cells stably expressing rat orexin 1 receptor; 4 nM radioligand; averages of 2-20 runs; read-out: rOX1 Ki
Procedure, shortened: as §1

[3] = biological target: human orexin 2 receptor (Homo sapiens (Human), UniProt O43614); assay: Human orexin 2 receptor radioligand binding ([3H]-EMPA competition); conditions: HEK293 stably expressing human orexin 2 receptor; 2 nM [3H]-EMPA; averages of 2-20 runs; read-out: hOX2 Ki
Sequence of human orexin 2 receptor (O43614 whole entry): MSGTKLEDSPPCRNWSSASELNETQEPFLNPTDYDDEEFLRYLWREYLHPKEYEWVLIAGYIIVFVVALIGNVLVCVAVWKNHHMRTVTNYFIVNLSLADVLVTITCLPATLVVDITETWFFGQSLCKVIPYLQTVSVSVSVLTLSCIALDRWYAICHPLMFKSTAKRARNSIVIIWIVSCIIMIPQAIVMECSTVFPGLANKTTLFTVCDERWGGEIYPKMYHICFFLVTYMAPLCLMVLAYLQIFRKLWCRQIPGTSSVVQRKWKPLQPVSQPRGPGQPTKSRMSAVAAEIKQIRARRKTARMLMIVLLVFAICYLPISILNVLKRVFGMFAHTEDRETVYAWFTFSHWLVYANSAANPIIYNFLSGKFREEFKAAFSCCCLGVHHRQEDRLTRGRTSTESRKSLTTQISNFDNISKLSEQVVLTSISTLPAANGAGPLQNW
Procedure, shortened: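 Membranes-free whole HEK293 cells stably expressing human OX2 receptor incubated with [3H]-EMPA and compound (7 concentrations, 0.1 nM–10 μM, ≤0.1% DMSO) for 60 min at room temperature; nonspecific binding with 10 μM almorexant. Filtration and scintillation counting; one-site IC50 converted to Ki using predetermined Kd, triplicates averaged over 2-20 runs.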

Sequence of human orexin 1 receptor (O43613 whole entry): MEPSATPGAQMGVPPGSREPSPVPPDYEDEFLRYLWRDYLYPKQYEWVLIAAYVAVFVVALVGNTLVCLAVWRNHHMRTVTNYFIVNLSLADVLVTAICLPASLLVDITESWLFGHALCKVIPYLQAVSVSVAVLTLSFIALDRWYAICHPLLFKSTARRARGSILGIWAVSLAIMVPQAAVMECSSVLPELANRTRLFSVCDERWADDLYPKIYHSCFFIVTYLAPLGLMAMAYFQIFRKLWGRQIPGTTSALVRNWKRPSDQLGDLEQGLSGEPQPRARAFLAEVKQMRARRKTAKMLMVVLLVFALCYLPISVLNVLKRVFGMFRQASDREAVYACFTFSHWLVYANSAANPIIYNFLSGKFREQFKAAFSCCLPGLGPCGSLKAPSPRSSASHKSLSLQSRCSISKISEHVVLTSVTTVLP

SMILES	Ki [1] [nM]	Ki [2] [nM]	Ki [3] [nM]
C[C@@H]1[C@H]2C[C@@H](Oc3ccc(C(F)(F)F)cn3)[C@H](C2)N1C(=O)c1ccccc1-n1ncc(CCCF)n1 [Example 168, [2-[4-(3-fluoropropyl)triazol-2-yl]phenyl]-[(1R,2R,4S,5R)-2-methyl-5-[[5-(trifluoromethyl)-2-pyridyl]oxy]-3-azabicyclo[2.2.1]heptan-3-yl]methanone]	20	14	1380
C[C@@H]1[C@H]2C[C@@H](Nc3ccc(C(F)(F)F)cn3)[C@H](C2)N1C(=O)c1ncccc1-c1ncccn1 (relative stereo) [Example 62, ((1S*,3R*,4S*,6R*)-3-methyl-6-((5-(trifluoromethyl)pyridin-2-yl)amino)-2-azabicyclo[2.2.1]heptan-2-yl)(3-(pyrimidin-2-yl)pyridin-2-yl)methanone]	4	5	360
O=C(c1cc(F)ccc1-n1nccn1)N1[C@H](CF)[C@@H]2CC[C@H]1[C@H](Oc1ccc(C(F)(F)F)cn1)C2 [Example 78, (5-fluoro-2-(2H-1,2,3-triazol-2-yl)phenyl)((1S,3S,4R,6R)-3-(fluoromethyl)-6-((5-(trifluoromethyl)pyridin-2-yl)oxy)-2-azabicyclo[2.2.2]octan-2-yl)methanone]	102	122	> 10000
Cc1cccc(C(=O)N2[C@H](C)[C@H]3C[C@@H](Oc4ccc(C(F)(F)F)nc4)[C@@H]2C3)c1-n1nccn1 (relative stereo) [Example 39, (3-methyl-2-(2H-1,2,3-triazol-2-yl)phenyl)((1S*,3R*,4R*,6R*)-3-methyl-6-((6-(trifluoromethyl)pyridin-3-yl)oxy)-2-azabicyclo[2.2.1]heptan-2-yl)methanone]	123	90	3600
[2H]C1([2H])[C@H]2C[C@@H]([C@@H]1Oc1ccc(C(F)(F)F)cn1)N(C(=O)c1cccc(F)c1-n1nccn1)[C@@H]2C [Example 199, [(1R,3R,4S,6R)-2,2-dideuterio-6-methyl-3-[[5-(trifluoromethyl)-2-pyridyl]oxy]-5-azabicyclo[2.2.1]heptan-5-yl]-[3-fluoro-2-(triazol-2-yl)phenyl]methanone]	5	5	556
O=C(c1cccc(F)c1-c1ncccn1)N1[C@H](CF)[C@@H]2CC[C@H]1[C@H](Oc1ccc(C(F)(F)F)cn1)C2 [Example 79, (3-fluoro-2-(pyrimidin-2-yl)phenyl)((1S,3S,4R,6R)-3-(fluoromethyl)-6-((5-(trifluoromethyl)pyridin-2-yl)oxy)-2-azabicyclo[2.2.2]octan-2-yl)methanone]	46	49	> 10000
Cc1cnc(-n2nccn2)c(C(=O)N2[C@H](C)[C@H]3C[C@@H](Oc4ccc(Cl)cn4)[C@@H]2C3)c1 [Example 194, [(1R,2R,4S,5R)-5-[(5-chloro-2-pyridyl)oxy]-2-methyl-3-azabicyclo[2.2.1]heptan-3-yl]-[5-methyl-2-(triazol-2-yl)-3-pyridyl]methanone]	5	5	2900
Cc1cnc(-n2nccn2)c(C(=O)N2[C@H](C)[C@H]3C[C@@H](Oc4cnc(C(F)(F)F)cn4)[C@@H]2C3)c1 (relative stereo) [Example 50, (5-methyl-2-(2H-1,2,3-triazol-2-yl)pyridin-3-yl)((1S*,3R*,4R*,6R*)-3-methyl-6-((5-(trifluoromethyl)pyrazin-2-yl)oxy)-2-azabicyclo[2.2.1]heptan-2-yl)methanone]	30	23	> 10000
Cc1ccc(-n2nccn2)c(C(=O)N2C(C)C3CC(Nc4ccc(C(F)(F)F)cn4)C2C3)n1 (racemic) [Example 58, (R/S)-(6-methyl-3-(2H-1,2,3-triazol-2-yl)pyridin-2-yl)(3-methyl-6-((5-(trifluoromethyl)pyridin-2-yl)amino)-2-azabicyclo[2.2.1]heptan-2-yl)methanone]	14	11	236
